{
  "source": "patent US20090215851A1",
  "about": "“Method of Preparing a Porphyrin Derivative, a Porphyrin Derivative, Use of Said Porphyrin derivative and a pharmaceutical composition containing said porphyrin derivative” (PHOTOBIOCHEM N.V., priority 2005, published 2009)",
  "key": {"[1]": {"assay": "Photochemical singlet oxygen generation (emission at 1270 nm after laser excitation in toluene)", "format": "physicochemical", "conditions": "laser excitation 532 nm, singlet oxygen generating conditions", "method": "Compound B dissolved in toluene was excited with a 9 mJ, 15 ns laser pulse at 532 nm from a home-built Q-switched frequency doubled Nd:YAG laser operating at 10 Hz. Emission from singlet oxygen at 1270 nm was detected at 90° to the quartz cuvette by an InGaAs photodiode, amplified and then signal-averaged (256 shots) on a digital oscilloscope (HP infinium). A 1260 nm interference filter (FWHM=75 nm) was used to protect the detector from laser light and sensitizer fluorescence. Typical decay times were 28±1 μs, which is characteristic for singlet oxygen decay in toluene (M. Okamoto et al, J. Phys. Chem., 1993, 97, pp. 177-180.) Tetraphenylporphyrin was used as a standard to determine the relative singlet oxygen yield (ΦΔ) (F. Wilkinson, et al, J. Phys. Chem. Ref. Data., 1993, 22, pp. 113-2162.). The relative quantum yield for compound 5 in air saturated toluene was 0.72. […] This stability of the compound according to the invention as exemplified by compound 5 towards singlet oxygen is surprising. In many porphyrins with appending double bonds the double bond reacts chemically with the singlet oxygen generated by the system. […]"}, "[2]": {"system": "A 549 lung carcinoma cells", "assay": "Dark toxicity test, MTT assay", "format": "cell-based", "conditions": "overnight in the dark at 37° C; concentrations up to 30 μg/ml", "method": "First a toxicity test of compound 5 in cultures of A 549 lung carcinoma cells (American Type Culture Collection) was carried out in the dark. The cells were incubated in a medium containing compound 5 at various concentrations. The cultures were left overnight in the dark at 37° C. Using the MTT (3-(4,5-dimethylthiazol-2-yl)-2,5-diphenyltetrazolium bromide) assay based on the methods of Tada et al (J. Immunol. Meth., 1986, 93, pp. 157-165) and J. Carmichael et al (Cancer Res., 1987, 47, pp. 936-942.) the cell survival was obtained as a percentage of untreated cells of control (FIG. 2). Even at concentrations up to 30 μg/ml in the medium cell survival was complete (within the experimental error), showing that compound 5 is essentially not toxic towards the lung carcinoma cells in the dark."}, "[3]": {"system": "A 549 lung carcinoma cells", "assay": "Photodynamic cytotoxicity after illumination with white halogen light, MTT assay", "format": "cell-based", "conditions": "0.10 μg/ml"}, "[4]": {"system": "CAM blood vessels", "assay": "AMD model: CAM (chorioallantoic membrane) model in fertilized chicken eggs, PDT", "format": "in vivo", "method": "Age-related Macula Degeneration (AMD) is an eye affliction that eventually leads to blindness. For studies to treat this affliction, an AMD model exists, the so-called CAM (chorioallantoic membrane) model in fertilized chicken eggs. The blood vessels in this chorioallantoic membrane mimic a number of relevant features characteristic for the blood vessels in the eye involved in causing AMD. Experiments with compound 7 were performed at the department of Professor Hubert van den Bergh of the EPFL in Lausanne. Different doses of compound 7 (dissolved in Water:PEG-400:1-Methyl-2-pyrrolidone (50:30:20 v/v), pH 8.1) were injected in the CAM blood vessels and the vessels were illuminated after an 1 minute time-to-treat interval using different amounts of light energy from a far red light source. In the experiments, Visudyne™ (which has an absorption peak at 690 nm), the only photosensitizer approved for clinical use in AMD, was used as the control.\nCompound 7 was as potent (already with a low light dose of 24 J/cm^2 and 1 mg/kg of body weight of photosensitizer 7 the desired grade 3 vessel damage could be obtained) as Visudyne™ in closing blood vessels in this model. […] (Legend: A: Compound 7 fluorescence angiography before PDT; B: compound 7 fluorescence angiography during PDT, shown in the circle is the red light irradiation area; C: sulforhodamine 101 fluorescence angiography 18 hours post-treatment)."}, "[5]": {"system": "subcutaneous mammary CaNT tumors", "assay": "Mouse tumor model, PDT", "format": "in vivo", "conditions": "for persistence of phototoxic effect with time after injection (FIG. 9): different intervals between injection and illumination", "method": "Experiments were performed to investigate the suitability of compound 7 for the photodynamic therapy (PDT) treatment of tumors, in particular subcutaneous mammary CaNT tumors. These experiments were performed by Photopharmica Ltd. under the guidance of Professor Stan Brown in the Centre for Photobiology and Photodynamic Therapy (Leeds, UK). Different doses of compound 7 (dissolved in Water:PEG-400:1-Methyl-2-pyrrolidone (50:30:20 v/v), with a maximum concentration of 0.5 mg/ml at pH 8.1) were intravenously injected and tumors were illuminated with red light (685±15 nm, 60 J/cm^2, 50 mW/cm^2) at different intervals after injection."}},
  "data": [
    {"compound": "2′-cyano-8′-formyl-N-methyl-1,1a,5a,6-tetrahydroacrido-[4,5,5a,6-bcd]-annulated 2,3-dihydromesoporphyrin dimethylester [compound 5]", "values": [
      {"measurement": "photo degradation as measured by changes in the absorption spectrum", "setting": "[1]", "value": "No photo degradation"},
      {"measurement": "cell survival as a percentage of untreated cells (dark toxicity)", "setting": "[2]", "value": "complete"},
      {"measurement": "lung carcinoma cells killed", "setting": "[3]; 4 hours incubation in the dark, then white halogen light 30 mW/cm^2 (270 kJ/m^2)", "value": 70, "unit": "%"},
      {"measurement": "photodynamic cytotoxicity compared with mTHPC (Foscan®)", "setting": "[3]; 4 hours incubation, white halogen light 30 mW/cm^2 (270 kJ/m^2), FIG. 3", "value": "comparable"}
    ]},
    {"compound": "2′-cyano-8′-formyl-N′-methyl-1′,1a′,5a′,6′-tetrahydroacrido[4,5,5a,6-bcd]-annulated 2,3-dihydromesoporphyrin dicarboxylic acid [compound 7]", "values": [
      {"measurement": "effect of PDT on small CAM blood vessels (FIG. 7)", "setting": "[4]; 12 J/cm^2 at 1 mg/kg body weight, angiography 18 hours post-treatment", "value": "closing of the small CAM blood vessels"},
      {"measurement": "potency in closing blood vessels compared with Visudyne™", "setting": "[4]; CAM model, far red light", "value": "as potent"},
      {"measurement": "leakage from the CAM blood vessels compared with Visudyne™", "setting": "[4]; fluorescence microscopy", "value": "much less leakage"},
      {"measurement": "vessel damage grade", "setting": "[4]; light dose 24 J/cm^2, 1 mg/kg of body weight, 1 minute time-to-treat interval", "value": 3, "unit": "grade"},
      {"measurement": "damage to internal tissue surrounding the tumor", "setting": "[5]; after light treatment", "value": "comparable to Photofrin™"},
      {"measurement": "damage to the skin overlaying the tumor, in contrast to Photofrin™", "setting": "[5]; after light treatment", "value": "less damage"},
      {"measurement": "skin photosensitivity", "setting": "[5]; at the effective tumor dose, within 24 hours after drug administration", "value": "lacking skin photosensitivity"},
      {"measurement": "persistence of phototoxic effect with time after injection (FIG. 9)", "setting": "[5]", "value": "vanishes rapidly in a couple of hours"},
      {"measurement": "PDT effect, light 2 minutes after injection", "setting": "[5]; drug-to-light interval 2 minutes", "value": "already present immediately"},
      {"measurement": "PDT effect, light 180 minutes after injection", "setting": "[5]; drug-to-light interval 180 minutes", "value": "virtually absent"},
      {"measurement": "dose with good tumor killing potential in vivo", "setting": "[5]; intravenous, red light 685±15 nm, 60 J/cm^2, 50 mW/cm^2", "value": "around 2.5 mg/kg"},
      {"measurement": "effect on tumor-necrosis and skin damage, light a couple of hours after injection", "setting": "[5]; treatment with light a couple of hours after injection", "value": "no effect"}
    ]},
    {"compound": "Oc1cccc(-c2c3nc(c(-c4cccc(O)c4)c4ccc([nH]4)c(-c4cccc(O)c4)c4nc(c(-c5cccc(O)c5)c5ccc2[nH]5)CC4)C=C3)c1", "note": "[Foscan, mTHPC, reference compound]", "values": [
      {"measurement": "potency relative to compound 7", "setting": "[5]; mouse tumor model, estimated", "value": "more potent than compound 7"}
    ]},
    {"compound": "Photofrin™ [reference compound]", "values": [
      {"measurement": "dose needed for the same percentage of necrotic area (FIG. 8), compared with compound 7", "setting": "[5]; % necrotic area versus dose", "value": "requires a higher dose for the same effect"},
      {"measurement": "persistence of phototoxic effect with time after injection (FIG. 9)", "setting": "[5]", "value": "remains phototoxic after several hours"},
      {"measurement": "potency relative to compound 7 (fold)", "setting": "[5]; mouse tumor model, estimated", "value": "2.5 times less potent than compound 7"}
    ]}
  ]
}
